Reference: US11420970B1 (NOVARTIS AG, priority 2019, dated 2022)
Where two headings read alike, the source gives them in different places.

Tests used:
[1] = biological target: NSD2 [1-1365] (Homo sapiens (Human), UniProt O96028); assay: LC-MS/MS-based NSD2 enzymatic assay (SAH production); assay type: biochemical
Procedure, shortened: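 Full-length NSD2 [1-1365] (8 nM final) with 1 μM SAM and 400 nM mouse-liver nucleosome in Tris pH 8.0 buffer; inhibitor preincubated 20 min with enzyme/SAM before nucleosome addition. Reaction 90 min at room temperature, TFA-quenched; SAH quantified by LC-MS/MS against d4-SAH internal standard and SAH standard curve.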

[2] = test system: cellular H3K36me2 level in thyroid carcinoma cell line CGTH-W-1 (NSD2 E1099K); assay: H3K36me2 cellular ELISA assay in CGTH-W-1 line; assay type: cell-based; conditions: Homo sapiens, CGTH-W-1, 72 h, read-out: H3K36me2 ELISA in CGTH-W-1
Procedure, shortened: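 CGTH-W-1 thyroid carcinoma cells (NSD2 E1099K gain-of-function) exposed to compound for 72 hours. Histone-bound plates probed for H3K36me2 and total H3 by chemiluminescent ELISA. Viability checked on a parallel plate with CellTiter-Glo.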

[3] = test system: cellular H3K36me2 level in multiple myeloma cell line KMS11 (t(4;14)+); assay: H3K36me2 cellular ELISA assay in KMS11-Par line; assay type: cell-based; conditions: Homo sapiens, KMS-11; KMS11-Par line, ELISA, 72 hours; read-out: H3K36me2 ELISA in KMS11-Par
Procedure, shortened: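 KMS11 cells were seeded a day ahead at 1,250 per well in Opti-MEM with B-27/N2, then treated with compound for 72 h. Histones were acid-extracted with 0.4M HCl, and H3K36me2 and total H3 were read by chemiluminescent ELISA. Viability was checked with CellTiter-Glo on a parallel plate in maintenance media.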

Sequence of NSD2 [1-1365] (O96028 whole entry): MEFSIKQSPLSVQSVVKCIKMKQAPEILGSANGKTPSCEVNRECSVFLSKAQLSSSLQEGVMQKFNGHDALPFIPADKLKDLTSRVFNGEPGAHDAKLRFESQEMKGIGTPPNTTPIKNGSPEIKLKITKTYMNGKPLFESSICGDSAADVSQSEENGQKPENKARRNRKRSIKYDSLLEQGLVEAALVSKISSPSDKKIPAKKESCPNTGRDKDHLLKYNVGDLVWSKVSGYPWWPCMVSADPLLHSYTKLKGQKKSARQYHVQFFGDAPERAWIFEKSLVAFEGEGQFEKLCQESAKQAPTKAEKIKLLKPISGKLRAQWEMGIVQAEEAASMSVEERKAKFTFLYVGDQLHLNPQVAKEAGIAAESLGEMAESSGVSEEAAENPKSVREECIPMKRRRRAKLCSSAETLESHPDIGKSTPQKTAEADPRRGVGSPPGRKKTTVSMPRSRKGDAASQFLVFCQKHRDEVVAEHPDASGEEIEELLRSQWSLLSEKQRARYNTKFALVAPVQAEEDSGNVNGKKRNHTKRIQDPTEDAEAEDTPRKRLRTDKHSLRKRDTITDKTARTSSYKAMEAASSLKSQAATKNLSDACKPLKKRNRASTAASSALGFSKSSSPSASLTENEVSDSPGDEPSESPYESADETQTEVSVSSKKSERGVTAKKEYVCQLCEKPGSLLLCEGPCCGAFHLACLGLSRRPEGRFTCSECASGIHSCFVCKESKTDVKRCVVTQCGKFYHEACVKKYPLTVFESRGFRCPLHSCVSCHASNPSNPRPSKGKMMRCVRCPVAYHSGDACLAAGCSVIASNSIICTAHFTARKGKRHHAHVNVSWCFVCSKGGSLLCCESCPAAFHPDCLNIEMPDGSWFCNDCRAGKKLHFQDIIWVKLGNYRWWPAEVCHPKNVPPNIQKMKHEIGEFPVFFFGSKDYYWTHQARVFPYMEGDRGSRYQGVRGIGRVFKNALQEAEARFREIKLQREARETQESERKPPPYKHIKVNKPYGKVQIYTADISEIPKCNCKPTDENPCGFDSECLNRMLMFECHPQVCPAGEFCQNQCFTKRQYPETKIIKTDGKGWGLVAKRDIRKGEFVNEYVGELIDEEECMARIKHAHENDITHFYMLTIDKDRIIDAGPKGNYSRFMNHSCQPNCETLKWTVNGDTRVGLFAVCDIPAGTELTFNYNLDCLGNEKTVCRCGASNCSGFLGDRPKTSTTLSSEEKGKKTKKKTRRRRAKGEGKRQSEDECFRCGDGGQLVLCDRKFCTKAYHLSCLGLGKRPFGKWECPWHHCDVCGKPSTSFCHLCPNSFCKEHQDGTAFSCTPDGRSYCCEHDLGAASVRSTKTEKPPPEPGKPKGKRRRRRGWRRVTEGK

Cc1cccc([C@@]2(N)CCCN(c3cnc(-c4ccc(F)c(F)c4)cc3Cn3cnc4c(N)ncnc43)C2)[n+]1[O-] [Example 232, (R)-2-(3-amino-1-(4-((6-amino-9H-purin-9-yl)methyl)-6-(3,4-difluorophenyl)pyridin-3-yl)piperidin-3-yl)-6-methylpyridine 1-oxide]
IC50 ([1]; read-out: NSD2 IC50): 10 to 1000 nM | IC50 [2]: 1470 nM | IC50 [3]: 7650 nM

COc1c(F)cc(-c2cc(Cn3cnc4c(N)ncnc43)c(N3CCC[C@](N)(c4cccc(Cl)n4)C3)cn2)cc1F [Example 233, (R)-9-((5-(3-amino-3-(6-chloropyridin-2-yl)piperidin-1-yl)-2-(3,5-difluoro-4-methoxyphenyl)pyridin-4-yl)methyl)-9H-purin-6-amine]
IC50 ([1]; read-out: NSD2 IC50): 1 to 10 nM | IC50 [2]: 341 nM | IC50 [3]: 1100 nM

CC(O)c1ccc([C@@]2(N)CCCN(c3cnc(-c4ccc(F)c(F)c4)cc3Cn3cnc4c(N)ncnc43)C2)nc1Cl (stereo partly drawn) [Example 234, 1-(6-((R)-3-amino-1-(4-((6-amino-9H-purin-9-yl)methyl)-6-(3,4-difluorophenyl)pyridin-3-yl)piperidin-3-yl)-2-chloropyridin-3-yl)ethan-1-ol]
IC50 ([1]; read-out: NSD2 IC50): 10 to 1000 nM | IC50 [2]: 1620 nM | IC50 [3]: 5990 nM

COc1cc(F)nc([C@@]2(N)CCCN(c3cnc(-c4ccc(F)c(F)c4)cc3Cn3cnc4c(N)ncnc43)C2)c1 [Example 235, (R)-9-((5-(3-amino-3-(6-fluoro-4-methoxypyridin-2-yl)piperidin-1-yl)-2-(3,4-difluorophenyl)pyridin-4-yl)methyl)-9H-purin-6-amine]
IC50 ([1]; read-out: NSD2 IC50): 1 to 10 nM | IC50 [2]: 705 nM | IC50 [3]: 970 nM

COc1cc(F)c(-c2cc(Cn3cnc4c(N)ncnc43)c(N3CCC[C@](N)(c4cccc(Cl)n4)C3)cn2)c(F)c1 [Example 236, (R)-9-((5-(3-amino-3-(6-chloropyridin-2-yl)piperidin-1-yl)-2-(2,6-difluoro-4-methoxyphenyl)pyridin-4-yl)methyl)-9H-purin-6-amine]
IC50 ([1]; read-out: NSD2 IC50): 10 to 1000 nM | IC50 [2]: 1390 nM | IC50 [3]: 6300 nM

Nc1ncnc2c1ncn2Cc1cc(-c2cc(F)c(F)cc2F)ncc1N1CCC[C@](N)(c2cccc(Cl)n2)C1 [Example 237]
IC50 ([1]; read-out: NSD2 IC50): 10 to 1000 nM | IC50 [2]: 825 nM | IC50 [3]: 2020 nM

Nc1ncnc2c1ncn2Cc1cc(-c2ccc(F)cc2F)ncc1N1CCC[C@](N)(c2cccc(Cl)n2)C1 [Example 238, (R)-9-((5-(3-amino-3-(6-chloropyridin-2-yl)piperidin-1-yl)-2-(2,4-difluorophenyl)pyridin-4-yl)methyl)-9H-purin-6-amine]
IC50 ([1]; read-out: NSD2 IC50): 1 to 10 nM | IC50 [2]: 588 nM | IC50 [3]: 1340 nM

Nc1ncnc2c1ncn2Cc1cc(-c2ccc(F)c(F)c2)ncc1N1CCC[C@](N)(c2nc(F)ccc2O)C1 [Example 239, (R)-2-(3-amino-1-(4-((6-amino-9H-purin-9-yl)methyl)-6-(3,4-difluorophenyl)pyridin-3-yl)piperidin-3-yl)-6-fluoropyridin-3-ol]
IC50 ([1]; read-out: NSD2 IC50): 1 to 10 nM | IC50 [2]: 353 nM | IC50 [3]: 1540 nM

Nc1ncnc2c1ncn2Cc1cc(-c2cnc(F)c(F)c2)ncc1N1CCCC(N)(c2cccc(Cl)n2)C1 (stereo not drawn) [Example 240, 9-((5-(3-amino-3-(6-chloropyridin-2-yl)piperidin-1-yl)-5′,6′-difluoro-[2,3′-bipyridin]-4-yl)methyl)-9H-purin-6-amine]
IC50 ([1]; read-out: NSD2 IC50): 10 to 1000 nM | IC50 [2]: 821 nM | IC50 [3]: 5930 nM

COc1ccc(-c2cc(Cn3cnc4c(N)ncnc43)c(N3CCC[C@](N)(c4ccc(F)c(C)n4)C3)cn2)cc1 [Example 241, (R)-9-((5-(3-amino-3-(5-fluoro-6-methylpyridin-2-yl)piperidin-1-yl)-2-(4-methoxyphenyl)pyridin-4-yl)methyl)-9H-purin-6-amine]
IC50 ([1]; read-out: NSD2 IC50): 10 to 1000 nM | IC50 [2]: 1190 nM | IC50 [3]: 4080 nM

COc1ccc(-c2cc(Cn3cnc4c(N)ncnc43)c(N3CCC[C@](N)(c4cccc(Cl)n4)C3)cn2)c(F)c1F [Example 242, (R)-9-((5-(3-amino-3-(6-chloropyridin-2-yl)piperidin-1-yl)-2-(2,3-difluoro-4-methoxyphenyl)pyridin-4-yl)methyl)-9H-purin-6-amine]
IC50 ([1]; read-out: NSD2 IC50): 10 to 1000 nM | IC50 [2]: 2710 nM | IC50 [3]: 8190 nM

COc1cnc(-c2cc(Cn3cnc4c(N)ncnc43)c(N3CCC[C@](N)(c4cccc(Cl)n4)C3)cn2)cc1F [Example 243, (R)-9-((5-(3-amino-3-(6-chloropyridin-2-yl)piperidin-1-yl)-4′-fluoro-5′-methoxy-[2,2′-bipyridin]-4-yl)methyl)-9H-purin-6-amine]
IC50 ([1]; read-out: NSD2 IC50): 1 to 10 nM | IC50 [2]: 541 nM | IC50 [3]: 2440 nM

Nc1ncnc2c1ncn2Cc1cc(-c2cnc(O)c(F)c2)ncc1N1CCCC(N)(c2cccc(Cl)n2)C1 (stereo not drawn) [Example 244, 5-(3-amino-3-(6-chloropyridin-2-yl)piperidin-1-yl)-4-((6-amino-9H-purin-9-yl)methyl)-5′-fluoro-[2,3′-bipyridin]-6′-ol]
IC50 ([1]; read-out: NSD2 IC50): 10 to 1000 nM | IC50 [2]: 12500 nM | IC50 [3]: 33300 nM

CCc1nccc([C@@]2(N)CCCN(c3cnc(-c4ccc(F)c(F)c4)cc3Cn3cnc4c(N)ncnc43)C2)n1 [Example 251, (R)-9-((5-(3-amino-3-(2-ethylpyrimidin-4-yl)piperidin-1-yl)-2-(3,4-difluorophenyl)pyridin-4-yl)methyl)-9H-purin-6-amine]
IC50 ([1]; read-out: NSD2 IC50): 10 to 1000 nM | IC50 [2]: 440 nM | IC50 [3]: 1520 nM

Nc1ncnc2c1ncn2Cc1cc(-c2ccc(F)c(F)c2)ncc1N1CCC[C@](N)(c2ccc[nH]c2=O)C1 [Example 272, (S)-3-(3-amino-1-(4-((6-amino-9H-purin-9-yl)methyl)-6-(3,4-difluorophenyl)pyridin-3-yl)piperidin-3-yl)pyridin-2(1H)-one]
IC50 ([1]; read-out: NSD2 IC50): 1 to 10 nM | IC50 [2]: 1750 nM | IC50 [3]: 10500 nM

Cn1ncc([C@@]2(N)CCCN(c3cnc(-c4ccc(F)c(F)c4)cc3Cn3cnc4c(N)ncnc43)C2)n1 [Example 283, (R)-9-((5-(3-amino-3-(2-methyl-2H-1,2,3-triazol-4-yl)piperidin-1-yl)-2-(3,4-difluorophenyl)pyridin-4-yl)methyl)-9H-purin-6-amine]
IC50 ([1]; NSD2 IC50): 1 to 10 nM | IC50 [2]: 110 nM | IC50 [3]: 1020 nM

Cc1cc([C@@]2(N)CCCN(c3cnc(-c4ccc(F)c(F)c4)cc3Cn3cnc4c(N)ncnc43)C2)no1 [Example 284, (R)-9-((5-(3-amino-3-(5-methylisoxazol-3-yl)piperidin-1-yl)-2-(3,4-difluorophenyl)pyridin-4-yl)methyl)-9H-purin-6-amine]
IC50 ([1]; read-out: NSD2 IC50): 1 to 10 nM | IC50 [2]: 111 nM | IC50 [3]: 254 nM

Nc1ncnc2c1ncn2Cc1cc(-c2ccc(F)c(F)c2)ncc1N1CCC[C@](N)([C@@H](F)CO)C1 [Example 285, (R)-2-((R)-3-amino-1-(4-((6-amino-9H-purin-9-yl)methyl)-6-(3,4-difluorophenyl)pyridin-3-yl)piperidin-3-yl)-2-fluoroethan-1-ol]
IC50 ([1]; read-out: NSD2 IC50): 1 to 10 nM | IC50 [2]: 43.7 nM | IC50 [3]: 885 nM

Nc1ncnc2c1ncn2Cc1cc(-c2cc(F)c(F)cc2F)ncc1N1CCC[C@](N)([C@@H](F)CO)C1 [Example 286, (R)-2-((R)-3-amino-1-(4-((6-amino-9H-purin-9-yl)methyl)-6-(2,4,5-trifluorophenyl)pyridin-3-yl)piperidin-3-yl)-2-fluoroethan-1-ol]
IC50 ([1]; read-out: NSD2 IC50): 1 to 10 nM | IC50 [2]: 5.9 nM | IC50 [3]: 655 nM

C[C@H]1COC[C@@H]([C@@]2(N)CCCN(c3cnc(-c4ccc(F)c(F)c4)cc3Cn3cnc4c(N)ncnc43)C2)O1 [Example 288, 9-((5-((R)-3-amino-3-((2R,6S)-6-methyl-1,4-dioxan-2-yl)piperidin-1-yl)-2-(3,4-difluorophenyl)pyridin-4-yl)methyl)-9H-purin-6-amine]
IC50 ([1]; read-out: NSD2 IC50): 10 to 1000 nM | IC50 [2]: 2390 nM | IC50 [3]: 5720 nM

Nc1ncnc2c1ncn2Cc1cc(-c2ccc(F)c(F)c2)ncc1N1CCC[C@](N)([C@@H]2COCCO2)C1 [Example 289, 9-((5-((R)-3-amino-3-((R)-1,4-dioxan-2-yl)piperidin-1-yl)-2-(3,4-difluorophenyl)pyridin-4-yl)methyl)-9H-purin-6-amine]
IC50 ([1]; read-out: NSD2 IC50): 1 to 10 nM | IC50 [2]: 492 nM | IC50 [3]: 2670 nM

Nc1ncnc2c1ncn2Cc1cc(-c2cc(F)c(F)cc2F)ncc1N1CCC[C@](N)([C@@H]2COCCO2)C1 [Example 290, 9-((5-((R)-3-amino-3-((R)-1,4-dioxan-2-yl)piperidin-1-yl)-2-(2,4,5-trifluorophenyl)pyridin-4-yl)methyl)-9H-purin-6-amine]
IC50 ([1]; read-out: NSD2 IC50): 10 to 1000 nM | IC50 [2]: 421 nM | IC50 [3]: 954 nM

Nc1ncnc2c1ncn2Cc1cc(-c2cc(F)c(F)cc2C(F)F)ncc1N1CCC[C@](N)([C@@H]2COCCO2)C1 [Example 291, 9-((5-((R)-3-amino-3-((R)-1,4-dioxan-2-yl)piperidin-1-yl)-2-(2-(difluoromethyl)-4,5-difluorophenyl)pyridin-4-yl)methyl)-9H-purin-6-amine]
IC50 ([1]; read-out: NSD2 IC50): 10 to 1000 nM | IC50 [2]: 812 nM | IC50 [3]: 1690 nM

CC(=C(F)F)[C@@]1(N)CCCN(c2cnc(-c3ccc(F)c(F)c3)cc2Cn2cnc3c(N)ncnc32)C1 [Example 293, (S)-9-((5-(3-amino-3-(1,1-difluoroprop-1-en-2-yl)piperidin-1-yl)-2-(3,4-difluorophenyl)pyridin-4-yl)methyl)-9H-purin-6-amine]
IC50 ([1]; read-out: NSD2 IC50): 10 to 1000 nM | IC50 [2]: 1300 nM | IC50 [3]: 3210 nM
